In ChEMBL document CHEMBL4765299 (Eur J Med Chem, 2020) one finds Activity, IC50 and inhibition data, which are given here for one compound.

For series [1], the system named is HUVEC. The experiment in a line: Inhibition of cell migration in HUVEC assessed as wound closure at 10 nM after 24 hrs by scratch wound healing assay (reference value: 76.3%). The format is functional, Homo sapiens. On the set-up: scale not given: the % may be the effect or the level left.
Series [2] has as its system K562. The experiment in a line: Induction of cell cycle arrest in human K562 cells assessed as accumulation at G2/M phase at 5 nM incubated for 48 hrs by propidium iodide/RNase staining based flow cytometry (reference value: 7.7%). The format is functional. A general note: A flow cytometer gives signals particle by particle.
The test system of a further series is H22. The experiment in a line: Anti-tumor activity against mouse H22 cells allografted in iv dosed ICR mice assessed as reduction in tumor weight administered daily for 21 days. Type of series: functional, organism-based. To be noted: dose 15-30 mg/kg/day, time 21.0 day.
The subject of series [3] is K562. The experiment in a line: Induction of cell cycle arrest in human K562 cells assessed as increase in accumulation at G2/M phase incubated for 48 hrs by propidium iodide/RNase staining based flow cytometry. The format is functional. The conditions noted are these: dose 5-20 nM.
The subject of series [4] is K562. The experiment in a line: Induction of mitochondrial membrane potential depolarization in human K562 cells assessed proportion of cells with intact MMP at 20 nM measured after 48 hrs by JC-1 staining based flow cytometry (reference value: 98.12%). The format is functional.
Series [5] in a line: against A against n against t against i against p against r against o against l against i against f against e against r against a against t against i against v against e against a against c against t against i against v against i against t against y against a against g against a against i against n against s against t against h against u against m against a against n against H against C against T against - against 8 against c against e against l against l against s against a against s against s against e against s against s against e against d against a against s against r against e against d against u against c against t against i against o against n against i against n against c against e against l against l against v against i against a against b against i against l against i against t against y against m against e against a against s against u against r against e against d against a against f against t against e against r against 7 against 2 against h against r against s against b against y against M against T against T against a against s against s against a against y against. The format is functional, tissue-based, Homo sapiens. To be noted: hct-8.

Series [6] deals with K562. The experiment in a line: Induction of mitochondrial membrane potential depolarization in human K562 cells assessed proportion of cells with intact MMP at 10 nM measured after 48 hrs by JC-1 staining based flow cytometry (reference value: 98.12%). Type of series: functional.
Series [7] in a line: Inhibition of porcine brain tubulin polymerization assessed as inhibition of microtubule assembly by measuring decrease in absorbance measured for 60 mins by fluorescence based analysis. The format is tissue-based, Sus scrofa.
The subject of series [8] is K562. The experiment in a line: Induction of cell cycle arrest in human K562 cells assessed as accumulation at G1 phase at 20 nM incubated for 48 hrs by propidium iodide/RNase staining based flow cytometry (reference value: 38.83%). Type of series: functional.
The nature of series [9]: Toxicity in ICR mouse allografted with mouse H22 cells assessed as body weight loss at 30 mg/kg, iv administered daily for 21 days. Type of series: organism-based. The conditions noted are these: in vivo, 504 h, dose 30 mg/kg/day, time 21 day.
Series [10] deals with HUVEC. The experiment in a line: Inhibition of cell migration in HUVEC assessed as wound closure at 5 nM after 24 hrs by scratch wound healing assay (reference value: 76.3%). On the set-up: scale not given: the % may be the effect or the level left. Type of series: functional, Homo sapiens.
The subject of series [11] is K562. The experiment in a line: Induction of mitochondrial membrane potential depolarization in human K562 cells assessed proportion of cells with collapsed MMP at 5 nM measured after 48 hrs by JC-1 staining based flow cytometry (reference value: 1.57%). Type of series: functional.
Series [12] deals with K562. The experiment in a line: Induction of cell cycle arrest in human K562 cells assessed as accumulation at S phase at 10 nM incubated for 48 hrs by propidium iodide/RNase staining based flow cytometry (reference value: 53.48%). The format is functional.
Series [13] is described as follows: against C against y against t against o against t against o against x against i against c against i against t against y against a against g against a against i against n against s against t against h against u against m against a against n against H against F against L against - against 1 against c against e against l against l against s against a against s against s against e against s against s against e against d against a against s against r against e against d against u against c against t against i against o against n against i against n against c against e against l against l against v against i against a against b against i against l against i against t against y against m against e against a against s against u against r against e against d against a against f against t against e against r against 7 against 2 against h against r against s against b against y against M against T against T against a against s against s against a against y against. The format is ADME, tissue-based. The conditions noted are these: Homo sapiens, HFL1.

Series [14] in a line: Toxicity in ICR mouse allografted with mouse H22 cells assessed as kidney morphological changes at 30 mg/kg, iv administered daily for 21 days by hematoxylin and eosin staining based microscopic analysis. Type of series: organism-based. To be noted: in vivo, 504 h, dose 30 mg/kg/day, time 21 day.
For series [15], the system named is HUVEC. The experiment in a line: Anti-angiogenesis activity in HUVEC assessed as inhibition of capillary-like tube formation at 20 nM incubated for 6 hrs by Matrigel-based optical microscopy. Type of series: functional, cell-based. The conditions noted are these: Homo sapiens.
Series [16] concerns K562. The experiment in a line: Induction of cell cycle arrest in human K562 cells assessed as accumulation at G2/M phase at 10 nM incubated for 48 hrs by propidium iodide/RNase staining based flow cytometry (reference value: 7.7%). The format is functional.
The next series is filed under the species Sus scrofa. The experiment in a line: Displacement of [3H]colchicine from porcine brain tubulin at 1 uM incubated for 2 hrs by TopCount scintillation counting method relative to control. Type of series: tissue-based.
For series [17], the system named is K562. The experiment in a line: Induction of cell cycle arrest in human K562 cells assessed as accumulation at S phase at 20 nM incubated for 48 hrs by propidium iodide/RNase staining based flow cytometry (reference value: 53.48%). The format is functional.

Activity calls are given as the source filed them. The calls are words filed in the database; no cut-off is given here.

With `C=C(c1cc(Cl)nc(NC)c1)c1ccc(OC)c(O)c1`, the Activity in the series with HUVEC [1] was 55.3%; with K562 [2], 9.4%; in the series on H22 it was “Dose-dependent effect”; in the series with K562 [3], “Dose-dependent effect”; in the series with K562 [4], 61.55%; with K562 [6], 79.83%. The Activity in the series with K562 [8] was 36.65%; in [9], “Non-Toxic”; in the series with HUVEC [10], 67.6%; with K562 [11], 13.44%; with K562 [12] it was 50.01%; in series [14], “Non-Toxic”. Further, the values for the Activity with K562 [16] and in the series on K562 [17] were 11.54% and 48.07%, respectively. Also, the IC50 was 21 nM in series [5], 3150 nM in [7] and 118 nM in series [13]. Further, the outcome in the series with HUVEC [15] was Active. This compound also registered an inhibition in the series filed under Sus scrofa of 66.5%.

As usually defined, the IC50 is the midpoint of a concentration-inhibition curve. One may read the inhibition as the change of the read-out against control, counted positive when it falls.
